Data published in the supplement of paper PMC10627819.

How the values were obtained:
[1] = test system: B. subtilis 168; experiment: fitness (endpoint OD595 vs no drug) (fraction); higher = more growth; conditions: main component drawn
Summary of the method: (§1)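 Cultures at OD595 0.01 were dispensed into 384-well plates in TSB, LB Lennox or CY and incubated at 37 °C. Every 30 min for 14 h, OD595 was read and corrected by the first reading. Fitness is the optical density at entry into stationary phase relative to the robust mean of no-drug control wells, capped at 1.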

[2] = test system: B. subtilis 168; experiment: Bliss interaction score (quartile over a dose matrix) (fitness difference); higher = more antagonism (negative = synergy)
Summary of the method: (§2)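 The Bliss score subtracts expected fitness, the product of the single-drug fitness values, from observed fitness. Fitness is plate-normalised OD595 at entry into stationary phase, relative to the robust no-drug mean and capped at 1, with single-drug fitness inferred from combinations. Summaries are quartiles over technical, biological and donor/recipient replicates.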

[3] = test system: S. aureus DSM 20231; experiment: as above
Summary of the method: as §2

[4] = test system: S. aureus Newman; experiment: as above
Summary of the method: as §2

[5] = test system: S. pneumoniae D39V; experiment: as above
Summary of the method: as §2

[6] = test system: S. pneumoniae D39V; experiment: fitness (endpoint OD595 vs no drug) (fraction); higher = more growth
Summary of the method: as §1
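Wherever Bliss interaction score (quartile over a dose matrix) is given: first quartile when negative (synergy) and third quartile when positive (antagonism).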

CNC(C)C1CCC(N)C(OC2C(N)CC(N)C(OC3OCC(C)(O)C(NC)C3O)C2O)O1 (stereo not given) [Gentamicin] + COc1cc(Cc2cnc(N)nc2N)cc(OC)c1OC [Trimethoprim]
fitness, [1], one replicate
Conditions | partner 0.1 µg/mL | partner 0.2 µg/mL | partner 0.4 µg/mL | partner 1 µg/mL | partner 2 µg/mL
first compound 0.0625 µg/mL | 0.953 | 0.787 | 0.539 | 0.0449 | 0.0512
first compound 0.125 µg/mL | 0.716 | 0.294 | 0.0552 | 0.0304 | 0.0461
first compound 0.25 µg/mL | 0.0356 | 0.0576 | 0.0438 | 0.0435 | 0.0503

fitness, [1]
Conditions | first compound 0.0625 µg/mL | first compound 0.125 µg/mL | first compound 0.25 µg/mL
partner 0.125 µg/mL | 0.661 | 0.548 | 0.0923
partner 0.25 µg/mL | 0.53 | – | 0.0847
partner 0.5 µg/mL | – | – | 0.041

main component drawn
Conditions | Bliss interaction score
[2] | -0.201
[3] | -0.0371
[4] | 0.0637
[5] | -0.193

Clc1ccc(COC(Cn2ccnc2)c2ccc(Cl)cc2Cl)c(Cl)c1 (stereo not given) [Miconazole] + COc1c(N2C[C@@H]3CCCN[C@@H]3C2)c(F)cc2c(=O)c(C(=O)O)cn(C3CC3)c12 [Moxifloxacin]
fitness, [6]
Conditions | first compound 1.073 µg/mL | first compound 1.25 µg/mL | first compound 2.145 µg/mL | first compound 2.5 µg/mL | first compound 4.29 µg/mL | first compound 5 µg/mL
partner 0.0037 µg/mL | 0.959 | – | 0.951 | – | 0.802 | –
partner 0.005 µg/mL | – | 0.935 | – | 0.926 | – | 0.953
partner 0.0075 µg/mL | 0.986 | – | 0.942 | – | 0.796 | –
partner 0.01 µg/mL | – | 0.925 | – | 0.936 | – | 0.961
partner 0.015 µg/mL | 0.957 | – | 0.942 | – | 0.682 | –
partner 0.02 µg/mL | – | 0.825 | – | 0.828 | – | 0.911

Conditions | Bliss interaction score
[2] | -0.0223
[3] | -0.059
[4] | 0.0536
[5] | 0.0598

Clc1ccc(COC(Cn2ccnc2)c2ccc(Cl)cc2Cl)c(Cl)c1 (stereo not given) [Miconazole] + COc1ccc(C[C@H](N)C(=O)N[C@H]2[C@@H](O)[C@H](n3cnc4c(N(C)C)ncnc43)O[C@@H]2CO)cc1 [Puromycin]
fitness, [6]
Conditions | first compound 1.073 µg/mL | first compound 2.145 µg/mL | first compound 4.29 µg/mL
partner 1 µg/mL | 0.966 | ≥ 1 | 0.968
partner 2 µg/mL | 0.996 | ≥ 1 | 0.976
partner 4 µg/mL | 0.879 | 0.903 | 0.846

fitness, [6], one replicate
Conditions | first compound 1.25 µg/mL | first compound 2.5 µg/mL | first compound 5 µg/mL
partner 1 µg/mL | 0.884 | 0.91 | ≥ 1
partner 2 µg/mL | 0.914 | 0.903 | 0.874
partner 4 µg/mL | 0.742 | 0.717 | 0.809

Conditions | Bliss interaction score
[2] | 0.0522
[3] | 0.0532
[4] | 0.0603
[5] | 0.124

Clc1ccc(COC(Cn2ccnc2)c2ccc(Cl)cc2Cl)c(Cl)c1 (stereo not given) [Miconazole] + C[n+]1ccc(-c2cc[n+](C)cc2)cc1 [Paraquat]
fitness, [6]
Conditions | first compound 1.073 µg/mL | first compound 2.145 µg/mL | first compound 4.29 µg/mL
partner 1.5 µg/mL | ≥ 1 | 0.999 | 0.925
partner 3 µg/mL | ≥ 1 | 0.987 | 0.908
partner 6 µg/mL | 0.979 | 0.983 | 0.824

fitness, [6], one replicate
Conditions | first compound 1.25 µg/mL | first compound 2.5 µg/mL | first compound 5 µg/mL
partner 1.5 µg/mL | ≥ 1 | 0.983 | 0.944
partner 3 µg/mL | ≥ 1 | ≥ 1 | 0.997
partner 6 µg/mL | 0.957 | 0.932 | 0.885

Conditions | Bliss interaction score
[2] | 0.0318
[3] | 0.0436
[4] | -0.0378
[5] | -0.0527

Clc1ccc(COC(Cn2ccnc2)c2ccc(Cl)cc2Cl)c(Cl)c1 (stereo not given) [Miconazole] + Cc1cc(NS(=O)(=O)c2ccc(N)cc2)no1 [Sulfamethoxazol]
fitness, [6]
Conditions | first compound 1.073 µg/mL | first compound 2.145 µg/mL | first compound 4.29 µg/mL
partner 1 µg/mL | 0.989 | ≥ 1 | 0.946
partner 2 µg/mL | 0.981 | 0.998 | 0.923
partner 4 µg/mL | 0.999 | 0.988 | 0.924

fitness, [6], one replicate
Conditions | first compound 1.25 µg/mL | first compound 2.5 µg/mL | first compound 5 µg/mL
partner 1 µg/mL | 0.94 | 0.966 | 0.932
partner 2 µg/mL | 0.894 | 0.955 | 0.908
partner 4 µg/mL | 0.892 | 0.876 | 0.864

Conditions | Bliss interaction score
[2] | 0.0845
[3] | 0.0319
[4] | 0.0463
[5] | 0.0572

Clc1ccc(COC(Cn2ccnc2)c2ccc(Cl)cc2Cl)c(Cl)c1 (stereo not given) [Miconazole] + Cc1onc(-c2ccccc2)c1C(=O)N[C@@H]1C(=O)N2[C@@H]1SC(C)(C)[C@@H]2C(=O)O [Oxacillin]
fitness, [6]
Conditions | first compound 1.073 µg/mL | first compound 1.25 µg/mL | first compound 2.145 µg/mL | first compound 2.5 µg/mL | first compound 4.29 µg/mL | first compound 5 µg/mL
partner 0.01 µg/mL | ≥ 1 | 0.939 | ≥ 1 | 0.938 | 0.928 | 0.946
partner 0.02 µg/mL | 0.977 | 0.864 | 0.906 | 0.874 | 0.716 | 0.892
partner 0.04 µg/mL | – | 0.363 | – | 0.359 | 0.434 | 0.386

Conditions | Bliss interaction score
[2] | 0.0802
[3] | 0.0539
[4] | 0.0481
[5] | 0.0753

Clc1ccc(COC(Cn2ccnc2)c2ccc(Cl)cc2Cl)c(Cl)c1 (stereo not given) [Miconazole] + Cn1nnc(-c2ccc(-c3ccc(N4C[C@H](CO)OC4=O)cc3F)cn2)n1 [Tedizolid]
fitness, [6]
Conditions | first compound 1.073 µg/mL | first compound 1.25 µg/mL | first compound 2.145 µg/mL | first compound 2.5 µg/mL | first compound 4.29 µg/mL | first compound 5 µg/mL
partner 0.03125 µg/mL | – | 0.96 | – | 0.97 | – | 0.925
partner 0.0625 µg/mL | – | 0.968 | – | 0.929 | – | 0.934
partner 0.125 µg/mL | 0.872 | 0.797 | 0.937 | 0.797 | 0.943 | 0.746
partner 0.25 µg/mL | 0.729 | – | 0.778 | – | 0.829 | –
partner 0.5 µg/mL | 0.413 | – | 0.402 | – | 0.489 | –

Conditions | Bliss interaction score
[2] | 0.0402
[3] | 0.0592
[4] | 0.0625
[5] | -0.0671

Clc1ccc(COC(Cn2ccnc2)c2ccc(Cl)cc2Cl)c(Cl)c1 (stereo not given) [Miconazole] + O=C1CN(/N=C/c2ccc([N+](=O)[O-])o2)C(=O)N1 [Nitrofurantoin]
fitness, [6]
Conditions | first compound 1.073 µg/mL | first compound 1.25 µg/mL | first compound 2.145 µg/mL | first compound 2.5 µg/mL | first compound 4.29 µg/mL | first compound 5 µg/mL
partner 1.285 µg/mL | – | 0.987 | – | 0.959 | – | 0.945
partner 2 µg/mL | 0.972 | – | ≥ 1 | – | 0.93 | –
partner 2.57 µg/mL | – | 0.968 | – | 0.954 | – | 0.936
partner 4 µg/mL | 0.988 | – | ≥ 1 | – | 0.949 | –
partner 8 µg/mL | 0.92 | – | 0.951 | – | 0.919 | –

[6], partner 5.14 µg/mL, one replicate
Conditions | fitness
first compound 1.25 µg/mL | 0.897
first compound 2.5 µg/mL | 0.848
first compound 5 µg/mL | 0.847

Conditions | Bliss interaction score
[2] | -0.125
[3] | 0.0458
[4] | -0.0579
[5] | 0.091

Cc1onc(-c2ccccc2)c1C(=O)N[C@@H]1C(=O)N2[C@@H]1SC(C)(C)[C@@H]2C(=O)O [Oxacillin] + CO[C@H]1/C=C/O[C@@]2(C)Oc3c(C)c(O)c4c(O)c(c(/C=N/N5CCN(C)CC5)c(O)c4c3C2=O)NC(=O)/C(C)=C\C=C\[C@H](C)[C@H](O)[C@@H](C)[C@@H](O)[C@@H](C)[C@H](OC(C)=O)[C@@H]1C [Rifampicin]
[6], partner 0.025 µg/mL, one replicate
Conditions | fitness
first compound 0.01 µg/mL | 0.891
first compound 0.02 µg/mL | 0.801
first compound 0.04 µg/mL | 0.407

[6], partner 0.2 µg/mL
Conditions | fitness
first compound 0.01 µg/mL | 0.144
first compound 0.02 µg/mL | 0.0871
first compound 0.04 µg/mL | 0.143

Conditions | Bliss interaction score
[2] | 0.0578
[3] | 0.0464
[4] | 0.0684
[5] | -0.0851

C[n+]1ccc(-c2cc[n+](C)cc2)cc1 [Paraquat] + CO[C@H]1/C=C/O[C@@]2(C)Oc3c(C)c(O)c4c(O)c(c(/C=N/N5CCN(C)CC5)c(O)c4c3C2=O)NC(=O)/C(C)=C\C=C\[C@H](C)[C@H](O)[C@@H](C)[C@@H](O)[C@@H](C)[C@H](OC(C)=O)[C@@H]1C [Rifampicin]
[6], partner 0.025 µg/mL, one replicate
Conditions | fitness
first compound 1.5 µg/mL | 0.869
first compound 3 µg/mL | 0.833
first compound 6 µg/mL | 0.842

fitness, [6]
Conditions | first compound 1.5 µg/mL | first compound 3 µg/mL | first compound 6 µg/mL
partner 0.05 µg/mL | – | 0.882 | 0.897
partner 0.2 µg/mL | 0.0862 | 0.102 | 0.0798

Conditions | Bliss interaction score
[2] | 0.0618
[3] | 0.0593
[4] | 0.0217
[5] | -0.0393

Cn1c2cccc(=O)c-2nc2ccccc21 [Pyocyanin] + CO[C@H]1/C=C/O[C@@]2(C)Oc3c(C)c(O)c4c(O)c(c(/C=N/N5CCN(C)CC5)c(O)c4c3C2=O)NC(=O)/C(C)=C\C=C\[C@H](C)[C@H](O)[C@@H](C)[C@@H](O)[C@@H](C)[C@H](OC(C)=O)[C@@H]1C [Rifampicin]
fitness, [6], one replicate
Conditions | first compound 0.325 µg/mL | first compound 0.65 µg/mL | first compound 1.3 µg/mL
partner 0.025 µg/mL | 0.917 | 0.942 | 0.765
partner 0.2 µg/mL | – | – | 0.021

fitness, [6]
Conditions | first compound 0.325 µg/mL | first compound 0.65 µg/mL
partner 0.05 µg/mL | – | 0.885
partner 0.2 µg/mL | 0.0407 | 0.178

Conditions | Bliss interaction score
[2] | -0.0612
[3] | 0.031
[4] | 0.0295
[5] | 0.0928
